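All cell lines were grown in 96-well plates and treated with compound for 48 hours. GI50 = concentration required for 50% inhibition of growth. TGI marks complete inhibition of growth.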
Experiments:
Experiment in all cases: inhibition of tumour cell growth, NCI panel, 48 h
HT29 colon = tested on: HT29 colon
ACHN renal = tested on: ACHN renal
MALME-3M melanoma = tested on: MALME-3M melanoma
COLO 205 colon = tested on: COLO 205 colon
HL-60(TB) leukemia = tested on: HL-60(TB) leukemia
OVCAR-8 ovarian = tested on: OVCAR-8 ovarian
MOLT-4 leukemia = tested on: MOLT-4 leukemia
SK-MEL-28 melanoma = tested on: SK-MEL-28 melanoma
HCT-116 colon = tested on: HCT-116 colon
DU-145 prostate = tested on: DU-145 prostate

| SMILES | TGI (HT29 colon) [µM] | TGI (ACHN renal) [µM] | TGI (MALME-3M melanoma) [µM] | TGI (COLO 205 colon) [µM] | TGI (HL-60(TB) leukemia) [µM] | TGI (OVCAR-8 ovarian) [µM] | TGI (MOLT-4 leukemia) [µM] | TGI (SK-MEL-28 melanoma) [µM] | TGI (HCT-116 colon) [µM] | GI50 (HT29 colon) [µM] | GI50 (ACHN renal) [µM] | GI50 (DU-145 prostate) [µM] | TGI (DU-145 prostate) [µM] | GI50 (MALME-3M melanoma) [µM] | GI50 (COLO 205 colon) [µM] | GI50 (OVCAR-8 ovarian) [µM] | GI50 (MOLT-4 leukemia) [µM] | GI50 (SK-MEL-28 melanoma) [µM] | GI50 (HCT-116 colon) [µM] | GI50 (HL-60(TB) leukemia) [µM] |
| --- | --- | --- | --- | --- | --- | --- | --- | --- | --- | --- | --- | --- | --- | --- | --- | --- | --- | --- | --- | --- |
| c1ccc2c(c1)CCc1c(-c3ccncc3)n[nH]c1-2 | > 100 | > 100 | > 100 | 63.3 | 88.8 | 88.6 | 85.4 | 62.8 | 46.2 |  |  |  |  |  |  |  |  |  |  |  |
| O=S(=O)(OI(OI(OS(=O)(=O)C(F)(F)F)c1ccccc1)c1ccccc1)C(F)(F)F |  | > 100 | > 100 | > 100 | 36.5 | > 100 | > 100 |  | > 100 |  |  |  |  |  |  |  |  |  |  |  |
| COc1cc(OC)c(OC)cc1/C=N/NC(=O)N/N=C/c1cc(OC)c(OC)cc1OC | > 100 | > 100 | > 100 | > 100 |  | > 100 | > 100 | > 100 | > 100 |  |  |  |  |  |  |  |  |  |  |  |
| COc1cc(C[P+](c2ccccc2)(c2ccccc2)c2ccccc2)cc(OC)c1OC | > 100 | > 100 | > 100 | > 100 | > 100 | > 100 |  | > 100 | > 100 |  |  |  |  |  |  |  |  |  |  |  |
| C=C(CN(C)Cc1ccccc1)c1ccc(NC(=O)c2ccc(C(=C)CN(C)Cc3ccccc3)cc2)cc1 | > 100 | > 100 | > 100 | > 100 |  | > 100 | > 100 | > 100 | > 100 | > 100 | 66.6 | 71.6 | > 100 | > 100 | > 100 | 45.3 | 49.8 | > 100 | 31.7 |  |
| COc1nc(=O)n(C2C=CC(=O)O2)cc1F (stereo unspecified) | 16.7 | 5.45 | 6.95 | 3.62 |  | > 100 |  | 20.1 | 4.81 | 4.63 | 2.11 | 11.1 | 28.2 | 1.8 | 1.71 | 23.9 |  | 6.92 | 2.05 |  |
| CCOC(=O)Nc1c(C)nc2ccccn12 | > 100 | > 100 | > 100 | > 100 |  | > 100 | > 100 | > 100 | > 100 | > 100 | > 100 | > 100 | > 100 | > 100 | > 100 | > 100 | > 100 | > 100 | > 100 |  |
| CC[C@@H]1NC(C(=O)OC)Cc2c1[nH]c1ccccc21 (stereo partly specified) | > 100 | > 100 | > 100 | > 100 | > 100 | > 100 | > 100 | > 100 | > 100 |  |  |  |  |  |  |  |  |  |  |  |
| CCOc1ccc(NC(=O)CC2SC(=Nc3ccc(C)cc3C)NC2=O)cc1 (stereo unspecified) | > 100 | > 100 | > 100 |  | > 100 | > 100 | 65 | > 100 | > 100 |  |  |  |  |  |  |  |  |  |  |  |
| O=Cc1cc2c(cc1-c1cc3c(cc1C=O)OCO3)OCO2 | > 100 | > 100 | > 100 | > 100 | > 100 | > 100 | > 100 | > 100 | > 100 |  |  |  |  |  |  |  |  |  |  |  |
| Cc1cc2c(cc1C)[n+](=O)cc(C(=O)C/C(=N/NC(=S)NN)C(=O)Nc1cccc(C(F)(F)F)c1)n2[O-] | > 100 | > 100 | > 100 | > 100 | > 100 | > 100 | > 100 | > 100 | > 100 |  |  |  |  |  |  |  |  |  |  |  |
| O=C(c1ccc([N+](=O)[O-])cc1[N+](=O)[O-])N(/N=C/C=C/c1ccccc1)c1nnc(-c2ccccc2)c(-c2ccccc2)n1 | > 100 | 78.1 | > 100 | > 100 | 51.6 | 67.8 | > 100 | 68.6 |  |  |  |  |  |  |  |  |  |  |  |  |
| CC12c3ccccc3C(OC=O)(c3ccccc31)C1(C)c3ccccc3C2(OC=O)c2ccccc21 | > 100 | > 100 | > 100 | > 100 | > 100 | > 100 | 68.5 | > 100 | > 100 |  |  |  |  |  |  |  |  |  |  |  |
| Cc1nc2c(N)ncnc2o1 | > 100 | > 100 | > 100 | > 100 | > 100 | > 100 | > 100 | > 100 | > 100 |  |  |  |  |  |  |  |  |  |  |  |
| COC(=N)c1csc(C2OC(CO)C(O)C2O)n1 (stereo unspecified) | > 100 | > 100 | > 100 | > 100 | > 100 | > 100 | > 100 | > 100 | > 100 |  |  |  |  |  |  |  |  |  |  |  |
| COC(=O)c1c2c(c(C)[n+]([O-])c1C)C(=O)C(NCc1ccc(Br)cc1)=CC2=O |  |  | 0.8 |  | 5.37 | 7.19 | 4.74 | > 100 | 3.77 |  |  |  |  | 0.243 |  | 1.83 | 1.97 | 4.13 | 1.23 | 2.31 |
| CCOc1ccc(OCC(=O)O)c2c1CCCC2=O | > 100 | > 100 | > 100 | > 100 | > 100 | > 100 | > 100 | > 100 |  |  |  |  |  |  |  |  |  |  |  |  |
| CCSc1nc(N=Cc2ccccc2O)c2cn[nH]c2n1 | > 100 | > 100 | 34.7 | > 100 |  | > 100 | > 100 | > 100 | > 100 | 30.7 | 29.8 | 72.1 | > 100 | 0.137 | 30.7 | 48.8 | 52.8 | 33 | 25.7 |  |
| Cc1nc2c(Br)cc(Br)cc2c(=O)n1-c1nnc(-c2cccc(Cl)c2Cl)c(N)n1 | > 100 | 56.1 |  | > 100 |  | 60.7 | 62.1 | > 100 | 34.9 | 30.3 | 19.5 | 27.8 | > 100 |  | 32.9 | 18.7 | 15.3 | 65.4 | 12.8 |  |
| O=[N+]([O-])c1cccnc1N=Nc1c(O)[nH]c2ccccc12 | 26 | 36 | 56.3 |  |  | > 100 | > 100 | 74.4 | 40 |  |  |  | 29.6 |  |  |  |  |  |  |  |
